In patent US6203822A, “Gallium-containing compounds for the treatment of infections caused by intracellular pathogens and pathogens causing chronic pulmonary infection” (priority 1996, dated 2001):

Legend:
Type in all cases: cell-based
[1] = system: M. avium-intracellulare complex (MAI), ATCC #25291; experiment: Growth inhibition of MAI (ATCC isolate) in human alveolar macrophages; conditions: 500 μM, 24 hr and 48 hr
Procedure: (§1) M. avium-intracellulare complex (MAI) was obtained from the ATCC (#25291) and from a patient isolate from the State Hygienic laboratory at the University of Iowa Hospital and Clinics. Human alveolar macrophages were obtained from broncholavage of healthy patients and placed in monolayer culture. The bacteria were added to the cells in a bacteria to macrophage ratio of about 1:1. Growth index readings were obtained at 24 hr and 48 hr after gallium nitrate administration (500 μM) as described in Example 3 and used by Cavalieri, et al. (Antimicrob. Agents and Chemo. 39:1542-1545,1995).

[2] = system: M. avium-intracellulare complex (MAI), patient isolate; experiment: Growth inhibition of MAI (patient isolate) in human alveolar macrophages; conditions: 500 μM, 24 hr and 48 hr
Procedure: as §1

[3] = system: Leishmania chagasi promastigotes; experiment: Inhibition of Leishmania chagasi promastigote growth
Procedure: Visceral leishmaniasis, the most serious form of human disease cause by Leishmania species, is fatal if untreated. Currently available treatment regimes suffer from both suboptimal efficacy and considerable toxicity. […] Leishmania chagasi, the cause of visceral leishmaniasis requires iron for growth and can obtain that iron from human transferrin, lactoferrin and hemin. When incubated in an in vitro culture system (using the culture methods of Wilson et al. Infect. Immun. 62:3262-3269, 1994), L. chagasi promastigotes were inhibited by the presence of gallium nitrate in a concentration dependent manner with inhibition observed at about at least 500 μM and higher (see Example 14 and FIG. 9).
Amastigotes were isolated from the spleens of infected hamsters and allowed to convert to promastigotes by cultivation in a modified minimal essential medium (HOMEM) with 10% heat inactivated fetal calf serum and hemin (8 μM). Parasites were used within 21 days of isolation from an infected hamster. Promastigote cultures were seeded at 10^6 promastigotes per ml and used after 2 to 3 days in logarithmic phase or 5 to 7 days in stationary phase of growth. During growth studies with gallium nitrate, promastigotes were suspended in iron-containing HOMEM to allow for organism growth. […]

[4] = system: M. tuberculosis strain H37Ra
[5] = system: M. tuberculosis strain Erdman in human macrophages; experiment: Growth inhibition of M. tuberculosis Erdman in human monocyte derived macrophages (MDM)
Procedure: Monocyte derived macrophages (MDM) containing strain H37Ra were incubated for 24 h (FIG. 2A), 48 h (FIG. 2B) or 72 h (FIG. 2C) and macrophages containing the virulent strain Erdman were incubated for 24 h (FIG. 2D) or 48 h (FIG. 2E) in gallium nitrate.
The gallium-containing compounds can also be tested for their ability to inhibit intracellular pathogens in tissue culture assays. In general, in these assays, the macrophages are placed in culture and incubated with the intracellular pathogen at an approximate cell to pathogen ratio of preferably at least 1:1 to about 1:5 cells:pathogen. Exemplary culture conditions are provided in the assays detailed in the Examples. For assays assessing M. tuberculosis infection, freshly adherent monocytes, 12 day-old adherent MDMs, or freshly adherent alveolar macrophages are incubated with M. tuberculosis, MAI or other intracellular bacteria at a ratio of about 1:1 to about 1:5 (phagocyte:bacterium). For M. tuberculosis or MAI, the bacteria are incubated with the phagocyte for 2 hr at 37° C. in RPMI/HEPES media with 2.5% serum or human serum albumin (serum-free). The cells are washed to remove non-adherent bacteria and monolayers are replated with RPMI containing 1% autologous serum (to maintain phagocyte viability but not to sustain extracellular growth of bacteria). Gallium-containing compounds, such as gallium nitrate, with, or without, other agents such as antibiotics, cytokines etc., are added about 24 hr. later and mycobacterial growth in cell lysates is then assessed over the next several days either by the radiometric BACTEC system or by colony-forming units on agarose plates. In each experiment, growth is assessed relative to control monolayers where no drug has been added.
Mononuclear phagocytes from healthy adult volunteers who were tuberculin skin test negative and had no history of mycobacterial infection were isolated and cultured in Teflon wells according to the methods of Schlesinger, et al. (J. Immunol. 150:2920-2930, 1993). […]

M. tuberculosis = experiment: Regrowth of M. tuberculosis in BACTEC system after gallium nitrate treatment (kill versus stasis)
Procedure: Example 4 and Example 5 detail exemplary methods used to determine whether the mycobacteria strains were killed by the addition of gallium nitrate. […] The bacteria were resuspended in 7H9 broth (BBL Microbiology Systems) or onto agar plates without gallium nitrate and incubated under conditions known to promote bacterial growth. In Example 4, the growth index for these cultures was assessed after 6 weeks to determine whether bacteria are inhibited or killed. […] In Example 5, M. tuberculosis-infected macrophages cell lysates were plated onto the surface of media able to support M. tuberculosis growth. Colony forming unit assays were counted to assess bacterial death or inhibition.
In Examples 2 and 3, gallium nitrate inhibited growth of M. tuberculosis. To determine whether the mycobacteria strains were killed by gallium nitrate or whether various concentrations of gallium nitrate were bacteriostatic, samples from the assay were tested in the BACTEC system. […] The bacteria, if present, was resuspended in 7H9 broth without gallium nitrate and incubated in the BACTEC system under conditions known in the art to promote bacterial growth.

O=[N+]([O-])[O-].O=[N+]([O-])[O-].O=[N+]([O-])[O-].[Ga+3] [gallium nitrate]
growth inhibition of MAI [1]: inhibits the growth of MAI
growth inhibition of MAI ([1]; listed as Gallium nitrate): significant inhibition of MAI growth
growth inhibition of MAI [2]: inhibits the growth of MAI
growth inhibition of MAI ([2]; listed as Gallium nitrate): significant inhibition of MAI growth
concentration at which inhibition was observed ([3]; L. chagasi promastigotes): at least 500 μM
inhibition of promastigote growth ([3]; about 250 μM to about 2 mM, about 24 to about 120 hrs): significantly inhibited
concentration with marked inhibition of growth (comparison with gallium transferrin) [4]: 100 µM
inhibition of growth ([5]; 24 h): Inhibition of growth was observed
inhibition of growth ([5]; about 1 to about 1000 μM): dose-dependent inhibition of growth
inhibition of growth versus 24 h ([5]; text: 48 and 72 h, FIG. 2 legend: 24 and 48 h for Erdman): More marked inhibition of growth
killing of bacteria (growth index after 6 weeks) (M. tuberculosis; growth index assessed after 6 weeks): the bacteria were killed
bacterial regrowth after gallium nitrate treatment (M. tuberculosis; resuspended in 7H9 broth without gallium nitrate, BACTEC): bacteria did not grow
